Tested on: T1, pPPO (purified kudzu polyphenol oxidase)
T1 construct: gene PPO; single prominent SDS-PAGE band approx. 21 kDa
Assay: UV-visible spectrophotometry at […] nm, Lineweaver-Burk
Format: biochemical, Pueraria montana var. lobata
Settings: catechol oxidation; activity assay in McIlvaine buffer pH 5.0, 25 °C

## Oc1ccccc1O [catechol]
  Km: 23.5 mM

From PMC8226850, “Thermal Inactivation Kinetics of Kudzu (Pueraria lobata) Polyphenol Oxidase and the Influence of Food Constituents” (Foods, 2021)
